{"source": "patent US6387395B1", "about": "“N-[1, (1-1) -dialkyloxy] - and N- [1, (1-1) -dialkenyloxy]- alk-1-yl-N,N,N-tetrasubstituted ammonium lipids and uses therefor” (priority 1985, dated 2002)", "key": {"Vero cells": {"test_system": "Vero cells", "experiment": "Protein synthesis ([3H]leucine) in cells treated with DOTMA liposomes / 2-5A analog", "type": "cell-based", "settings": "6 hours incubation, alone (no DOTMA); 2-5A analog at 10^−6 M", "from_the_text": "Oligoadenylates of the general structure ppp(A2′p)nA, n≧2, are referred to as “2-5A”. 2-5A molecules are well known, to those skilled in the art, to bind to an intracellular endonuclease resulting in activation of the endonuclease with subsequent cleavage of ribosomal and messenger RNA, resulting in inhibition of protein synthesis. […] A calcium phosphate coprecipitation technique can be employed to artificially introduce 2-5A into cells, which can be monitored by inhibition of protein synthesis. […] The solutions were then removed by aspiration, the cells were labelled for 90 minutes with [^3H] leucine (1 μCi/0.5 ml/well), and the trichloroacetic acid (TCA)-precipitable radioactivity was determined after incubating 30 minutes with cold 10% TCA, washing, harvesting the cells with 0.1 M NaOH, neutralizing with HCl, and quantitating the radioactivity by liquid scintillation counting. […] However, the calcium phosphate treatment was very toxic to the cells, as determined from their morphology as well as approximately up to 40% reduction in protein synthesis of the cells receiving only the calcium phosphate treatment but no 2-5A.\nCells were incubated and protein synthesis was determined as described above except that the 60 mM CaCl2 was not included. […] In another test, cells were incubated with samples for 2, 6, or 18 hours and protein synthesis was determined as described above."}, "[1]": {"experiment": "Solubility of drug in phosphate buffered saline", "type": "physicochemical", "experimental": "For example, 1-[4-(4-chlorophenyl)-2-(2,6-dichlorophenylthio)-n-butyl] imidazole nitrate without the presence of any of the compounds of this invention is insoluble in aqueous buffer (phosphate buffered saline, pH 7.4).\nA 0.3% soluble preparation of the above drug was prepared using the following method:\n18 mg of 1-[4-(4-chlorophenyl)-2-(2,6-dichlorophenylthio)-n-butyl] imidazole nitrate and 482 mg of N-(2,3-di-(9-(Z)-octadecenyloxy)-prop-1-yl-N,N,N-trimethylammonium chloride were dissolved in methylene dichloride. The methylene dichloride was evaporated under a stream of nitrogen and the dried film placed under vacuum overnight. The dried film was suspended in 6 ml phosphate buffered saline, pH 7.4, and sonicated to clarity."}, "JZ.1 cells": {"test_system": "JZ.1 cells", "experiment": "Transient transfection with pSV2CAT, CAT activity", "type": "cell-based, rat", "experimental": "(§1) (a) Formation of the lipid-DNA complexBoth DNA and lipid are diluted to 1.5 ml each with HBS (150 mM NaCl, 20 mM Hepes pH 7.4) and then mixed. The DNA lipid complexes form immediately. A typical transfection would use 1 to 10 μg DNA and 100 μg of total lipid (DOTMA:PE, 1:1).\n(§2) (b) Treatment of cells—Just confluent 100 mm tissue culture plates of cells are washed 2× with 5 ml of HBS and 3 ml of the DNA-lipid solution is added. The cells are incubated for 3-5 hours at 37° and then 10 ml of DMEM+10% fcs is added. After incubation for 16 hours at 37° the medium is replaced with 10 ml fresh medium and cells are harvested by scraping 2-3 days later. Cell extracts were prepared and CAT assays performed as previously described. For stable transfections 50% confluent cells were treated as above except that 2 days after transfection cells were passaged and grown in selective medium for either neomycin resistance (0.4 mg/ml G418) or E. coli XGPRT expression.\n(§3) Cells were transfected with calcium phosphate precipitated DNA as described with the addition of a glycerol shock. Similarly cells were transfected with the DEAE-dextran method as described."}, "mouse L-cells [2]": {"test_system": "mouse L-cells", "experiment": "DNA transfection of mouse L-cells", "type": "cell-based", "experimental": "as §1\nas §2, with “The cells are incubated for 3-5 hours at 37° and then 10 ml of DMEM+10% fcs is added.” left out"}, "[3]": {"experiment": "DNA-lipid complex formation on sucrose density gradient", "type": "physicochemical", "settings": "lipid mixed with DNA at a ratio of 5:1 (wt:wt), gentle mixing", "from_the_text": "DNA interacts spontaneously with solutions of DOTMA to form lipid-DNA complexes. This complex formation is due presumably to ionic interactions between the positively charged group on the DOTMA molecule and the negatively charged phosphate groups on the DNA. Complex formation was examined using a sucrose density gradient (not shown). In the absence of lipid, DNA migrated to the bottom of the gradient while lipid, in the absence of DNA, floated at the top. When lipid was mixed with DNA at a ratio of 5:1 (wt:wt) all the DNA migrated with the lipid. The association of 100% of the DNA with DOTMA after gentle mixing contrasts with conventional liposome encapsulation procedures which usually entrap less than 10% of the DNA, require an additional purification step to remove unencapsulated DNA or involve potentially destructive conditions such as vigorous agitation or sonication."}, "CV-1 cells": {"test_system": "CV-1 cells", "experiment": "Transient transfection with pSV2CAT, CAT activity", "type": "cell-based, monkey", "settings": "CV-1 and COS 7 cells", "experimental": "as §1, §2, §3\nCells transfected with the plasmid pSV2CAT express CAT enzyme activity that can be measured in cell extracts 2 days after transfection. […]"}, "mouse L-cells [4]": {"test_system": "mouse L-cells", "experiment": "Cytotoxicity of dsRNA introduced into cells (trypan blue viability)", "type": "cell-based", "from_the_text": "Interferon treatment of various cells including both mouse and human cells results in induction of an enzyme, 2-5A synthetase, which when activated by double stranded RNA produces 2-5A. 2-5A is a polymer of ATP that contains unique 2′-5′ linkages rather than the standard 3′-5′ linkages. 2-5A is effectively a communication molecule which activates a latent 2′-5′ endonuclease resulting in degradation of cellular mRNA. […] In the presence of double stranded RNA, 2-5A is produced and can be produced in sufficient concentrations to degrade the majority of the cellular RNA, including ribosomal RNA, resulting in cell death. In this respect, this system can be used as cytotoxic assay to analyze the capacity of a compound to introduce double stranded RNA into the cytoplasm of a cell. The double stranded RNA commonly used is poly IC, a commercially available compound which is used experimentally and classically to induce interferon by methods well known to those familiar in the art. Poly IC will not penetrate cells and cause cytotoxic effects alone, but requires a vehicle to help carry it across the cell membrane. The most common agent used for this purpose is DEAE dextran in experimental cell culture systems and a complex of carboxymethyl cellulose and polylysine in clinical use. […]"}, "Vero or L929 cells": {"test_system": "Vero or L929 cells", "experiment": "Inhibition of protein synthesis ([3H]leucine) by 2-5A, calcium phosphate coprecipitation", "type": "cell-based", "from_the_text": "Oligoadenylates of the general structure ppp(A2′p)nA, n≧2, are referred to as “2-5A”. 2-5A molecules are well known, to those skilled in the art, to bind to an intracellular endonuclease resulting in activation of the endonuclease with subsequent cleavage of ribosomal and messenger RNA, resulting in inhibition of protein synthesis. […] A calcium phosphate coprecipitation technique can be employed to artificially introduce 2-5A into cells, which can be monitored by inhibition of protein synthesis. Thus 10^−5 to 10^−9 M 2-5A was added to a solution of 120 mM CaCl2, which was then added dropwise into bubbled Hepes buffered saline, pH 7.05 (8.0 g NaCl, 0.37 g KCl, 0.125 g Na2HPO4″2H2O, 1.0 g glucose, and 5.0 g Hepes per liter). A final sample volume of 0.5 ml was added to quadruplicate wells of Costar 24 well plates containing confluent Vero or L929 cells. After 45 minutes at room temperature, an additional 0.5 ml of media was added to each well and incubated an additional 90 minutes at 37° C. The solutions were then removed by aspiration, the cells were labelled for 90 minutes with [^3H] leucine (1 μCi/0.5 ml/well), and the trichloroacetic acid (TCA)-precipitable radioactivity was determined after incubating 30 minutes with cold 10% TCA, washing, harvesting the cells with 0.1 M NaOH, neutralizing with HCl, and quantitating the radioactivity by liquid scintillation counting. […] 50%-maximal inhibition occurred at approximately 10^−9 M 2-5A. However, the calcium phosphate treatment was very toxic to the cells, as determined from their morphology as well as approximately up to 40% reduction in protein synthesis of the cells receiving only the calcium phosphate treatment but no 2-5A."}, "TA1 cells": {"test_system": "TA1 cells", "experiment": "Stable transfection frequency (drug resistant colonies)", "type": "cell-based, murine", "experimental": "(§4) (b) Treatment of cells—Just confluent 100 mm tissue culture plates of cells are washed 2× with 5 ml of HBS and 3 ml of the DNA-lipid solution is added. The cells are incubated for 3-5 hours at 37° and then 10 ml of DMEM+10% fcs is added. After incubation for 16 hours at 37° the medium is replaced with 10 ml fresh medium and cells are harvested by scraping 2-3 days later. Cell extracts were prepared and CAT assays performed as previously described.\nas §3"}, "L-TK cells": {"test_system": "L-TK cells", "experiment": "Stable transfection frequency (drug resistant colonies)", "type": "cell-based, murine", "settings": "pSV2neo 1 μg with 10 μg carrier DNA", "experimental": "as §4, §3"}, "Ψ2 cells": {"test_system": "Ψ2 cells", "experiment": "Stable transfection frequency (drug resistant colonies)", "type": "cell-based, murine", "experimental": "as §4, §3"}, "MSN610.2 cells": {"test_system": "MSN610.2 cells", "experiment": "Stable transfection frequency (drug resistant colonies)", "type": "cell-based, rat", "settings": "MSN610.2, pSV2neo 1 μg with 10 μg carrier DNA", "experimental": "as §4, §3"}}}
{"compound": "5′-triphosphophoryladenylyl-(2′→5′)adenylyl-(2′→5′)adenylyl-(2′→6′)(3′-aza-N-hexyl-1′,2′,3′,4′-tetradeo xyhexopyranos-1′-yl)adenine [2-5A analog]", "values": [{"measurement": "% of protein synthesis of untreated cells", "setting": "Vero cells", "result": "82±14", "unit": "%"}]}
{"compound": "Clc1ccc(CCC(Cn2ccnc2)Sc2c(Cl)cccc2Cl)cc1.O=[N+]([O-])O", "note": "(stereo not shown) [1-[4-(4-chlorophenyl)-2-(2,6-dichlorophenylthio)-n-butyl] imidazole nitrate]", "values": [{"measurement": "soluble preparation of drug", "setting": "[1]; 18 mg drug with 482 mg DOTMA in 6 ml phosphate buffered saline pH 7.4, sonicated to clarity", "result": 0.3, "unit": "%"}, {"measurement": "solubility in aqueous buffer", "setting": "[1]; phosphate buffered saline, pH 7.4, without compounds of the invention", "result": "insoluble"}]}
{"compound": "CCCCCCCC/C=C\\CCCCCCCCOCC(C[N+](C)(C)C)OCCCCCCCC/C=C\\CCCCCCCC.[Cl-]", "note": "(stereo not shown) [DOTMA, N-(2,3-di(9-(Z)-octadecenyloxy))-prop-1-yl-N,N,N-trimethylammonium chloride]", "values": [{"measurement": "fold enhancement over the DEAE-dextran procedure", "setting": "JZ.1 cells", "result": "≥ 80", "unit": "fold"}, {"measurement": "CAT activity (% of control)", "setting": "mouse L-cells [2]; serum present from the outset", "result": "less than 5%"}, {"measurement": "DNA associated with lipid", "setting": "[3]", "result": 100, "unit": "%"}, {"measurement": "fold increase in CAT activity relative to transient transfection with DEAE-dextran", "setting": "CV-1 cells", "result": "6-11 fold"}]}
{"compound": "CCCCCCCCCCCCCCCCCC[N+](C)(C)CCCCCCCCCCCCCCCCCC.[Br-]", "note": "[dioctadecyl dimethyl ammonium bromide]", "values": [{"measurement": "efficacy as mediators of DNA transfection", "setting": "mouse L-cells [2]", "result": "little efficacy"}]}
{"compound": "CCCCCCCCCCCCCCCCCCN", "note": "[stearylamine]", "values": [{"measurement": "efficacy as mediators of DNA transfection", "setting": "mouse L-cells [2]", "result": "little efficacy"}]}
{"compound": "Poly IC", "values": [{"measurement": "Cell Survival", "setting": "mouse L-cells [4]; 1 million cells, 24 hrs treatment, trypan blue", "result": 100, "unit": "%"}, {"measurement": "frequency of surviving cells", "setting": "mouse L-cells [4]; poly IC introduced by the DOTMA lipid", "result": "1×10^−6"}]}
{"compound": "calcium phosphate", "values": [{"measurement": "% of protein synthesis of untreated cells", "setting": "Vero cells", "result": "64±3", "unit": "%"}, {"measurement": "reduction in protein synthesis", "setting": "Vero or L929 cells; calcium phosphate treatment only, no 2-5A", "result": "up to 40%"}, {"measurement": "Frequency × 10^5", "setting": "TA1 cells; TA1, pMSGC5a 7 μg", "result": 1.3}, {"measurement": "Frequency × 10^5", "setting": "TA1 cells; TA1, pSV2neo 1 μg with 10 μg carrier DNA", "result": 2}, {"measurement": "Frequency × 10^5", "setting": "TA1 cells; TA1, pZIPSVX 7 μg", "result": 0.7}, {"measurement": "Frequency × 10^5", "setting": "L-TK cells", "result": 3}, {"measurement": "Frequency × 10^5", "setting": "Ψ2 cells; Ψ2, pZIPC5a 7 μg", "result": 1.8}, {"measurement": "Frequency × 10^5", "setting": "Ψ2 cells; Ψ2, pZIPSVX 7 μg", "result": 0.6}, {"measurement": "Frequency × 10^5", "setting": "MSN610.2 cells", "result": 1.3}]}
{"compound": "ppp(A2′p)2A", "values": [{"measurement": "IC50", "setting": "Vero or L929 cells; after the calcium-phosphate precipitation technique, read-out: 50%-maximal inhibition of protein synthesis", "result": "~1", "unit": "nM"}, {"measurement": "inhibition of protein synthesis", "setting": "Vero or L929 cells; all concentrations, without calcium phosphate coprecipitation", "result": "no inhibition of protein synthesis"}]}
